Values joined by “and” are separate entries in the source; they are usually repeats but may differ in a detail not shown here. Equal entries are not always repeated.
How the values were obtained:
[1] = Solubility of biocide in two-component solvent system (A1:A2); type: physicochemical
Procedure: Component (A1) and component (A2) were mixed and heated to a temperature in the range of 20° C. to 100° C. to obtain a solution. Respective amount of the biocide was charged to the above solution at a temperature in the range of 20° C. to 100° C. to obtain the solution containing biocide. Emulsifier and other optional ingredients were charged o to the above biocide containing solution to obtain the emulsifiable composition (C).

[2] = Solubility of azoxystrobin in three components solvent system; type: physicochemical
Procedure: Component (A1) and component (A2) were mixed and heated to a temperature in the range of 20° C. to 100° C. to obtain a solution. Respective amount of the biocide was charged to the above solution at a temperature in the range of 20° C. to 100° C. to obtain the solution containing biocide. Emulsifier and other optional ingredients were charged o to the above biocide containing solution to obtain the emulsifiable composition (C). It is evident from table 1 to 5 that the biocides can be solubilised in a combination of at least one component (A1) and at least one component (A2) and which can be further formulated to stable emulsion concentrate. It can be inferred from table 4 that the tebuconazole can be formulated to an emulsifiable concentrate compared to suspension concentrate or emulsion concentrate in aromatic solvent system. Further, table 5 discloses that a three components solvent system also aids in solubilizing the biocides or adding water to two-components solvent system can improve the solubility of the biocide(s).

[3] = solvent system 2-phenylethanol : Formic acid, molar ratio 1:2
[4] = solvent system 2-phenylethanol : Formic acid, molar ratio 2:1
[5] = solvent system 2-phenylethanol : Methyl salicylate, molar ratio 1:1
[6] = solvent system 2-phenylethanol : Methyl salicylate, molar ratio 2:1
[7] = solvent system 4-methylcyclohexanol : Methyl salicylate, molar ratio 1:2
[8] = solvent system Cyclohexanol : D,L-Lactic acid, molar ratio 1:1
[9] = solvent system Thymol : Phenyl acetic acid, molar ratio 2:1
[10] = solvent system formic acid : Methyl salicylate, molar ratio 2:1

With `CC(C)(C)C(O)(CCc1ccc(Cl)cc1)Cn1cncn1` (stereo not shown) [Tebuconazole] the “Solubility wt. % in total (C)” value ([1]; solvent system 2-phenylethanol : Formic acid, molar ratio 1:1) was 40 wt. %, the “Solubility wt. % in total (C)” value [1, 3] was 40 wt. % and the “Solubility wt. % in total (C)” value [1, 4] was 35 wt. %. For the same compound, the “Solubility wt. % in total (C)” value [1, 5] was 38 wt. %, the “Solubility wt. % in total (C)” value [1, 6] was 42 wt. % and the “Solubility wt. % in total (C)” value [1, 7] was 35 wt. %. For the same compound, the “Solubility wt. % in total (C)” value [1, 8] was 47 wt. %, the “Solubility wt. % in total (C)” value ([1]; solvent system Cyclohexanol : Methyl salicylate, molar ratio 1:2) was 38 wt. % and the “Solubility wt. % in total (C)” value [1, 9] was 36 wt. %. For the same compound, the “Solubility wt. % in total (C)” value [1, 10] was 50 wt. %.
For `CS(=O)(=O)c1ccc(C(=O)C2C(=O)CCCC2=O)c([N+](=O)[O-])c1` [Mesotrione], the “Solubility wt. % in total (C)” value [1, 9] was 20 wt. %.
In the case of `CO/C=C(/C(=O)OC)c1ccccc1Oc1cc(Oc2ccccc2C#N)ncn1` [Azoxystrobin], the “Solubility wt. % in total (C)” value ([1]; solvent system 2-phenoxyethanol : D,L-Lactic acid, molar ratio 1:1) is reported as 36 wt. %, the “Solubility wt. % in total (C)” value ([1]; solvent system 2-phenoxyethanol : D,L-lactic acid, molar ratio 1:2) is reported as 20 wt. % and the “Solubility wt. % in total (C)” value ([1]; solvent system 2-phenoxyethanol : Methyl salicylate, molar ratio 1:1) is reported as 19 wt. %. The “Solubility wt. % in total (C)” value ([1]; solvent system 2-phenoxyethanol : Veratrole, molar ratio 2:1) was 23 wt. %, the “Solubility wt. % in total (C)” value ([1]; solvent system 2-phenylethanol : D,L-Lactic acid, molar ratio 1:1) was 25 wt. % and the “Solubility wt. % in total (C)” value ([1]; solvent system 2-phenylethanol : D,L-Lactic acid, molar ratio 2:1) was 22 wt. %. For the same compound, the “Solubility wt. % in total (C)” value [1, 3] was 20 wt. %, the “Solubility wt. % in total (C)” value [1, 4] was 20 wt. % and the “Solubility wt. % in total (C)” value [1, 5] was 27 wt. %. The “Solubility wt. % in total (C)” value ([1]; solvent system 2-phenylethanol : Methyl salicylate, molar ratio 1:2) was 25 wt. % and 24 wt. %, the “Solubility wt. % in total (C)” value [1, 6] was 27 wt. % and 23 wt. % and the “Solubility wt. % in total (C)” value ([1]; solvent system 2-phenylethanol : Phenyl acetic acid, molar ratio 2:1) was 25 wt. %. The “Solubility wt. % in total (C)” value ([1]; solvent system 4-isopropylbenzylalcohol : Phenyl acetic acid, molar ratio 2:1) was 24 wt. %, the “Solubility wt. % in total (C)” value ([1]; solvent system 4-methylcyclohexanol : Hydroxy pivalic acid, molar ratio 2:1) was 24 wt. % and the “Solubility wt. % in total (C)” value [1, 7] was 20 wt. %. For the same compound, the “Solubility wt. % in total (C)” value ([1]; solvent system Carvacrol : 2-ethylphenol, molar ratio 1:2) was <49 wt. %, the “Solubility wt. % in total (C)” value [1, 8] was 20 wt. % and the “Solubility wt. % in total (C)” value ([1]; solvent system Cyclohexanol : D,L-Lactic acid, molar ratio 1:2) was 20 wt. %. The “Solubility wt. % in total (C)” value ([1]; solvent system Cyclohexanol : Hydroxy pivalic acid, molar ratio 2:1) was 21 wt. %, the “Solubility wt. % in total (C)” value ([1]; solvent system D,L-Lactic acid : 1,2-dimethoxy benzene, molar ratio 2:1) was 32 wt. % and the “Solubility wt. % in total (C)” value ([1]; solvent system D,L-Lactic acid : 2-phenoxyethanol, molar ratio 1:1) was 23 wt. %. For the same compound, the “Solubility wt. % in total (C)” value ([1]; solvent system D,L-Lactic acid : 4-acetylanisole, molar ratio 2:1) was 22 wt. %, the “Solubility wt. % in total (C)” value ([1]; solvent system D,L-Lactic acid : 4-isopropylbenzyl alcohol, molar ratio 2:1) was 33 wt. % and the “Solubility wt. % in total (C)” value ([1]; solvent system D,L-Lactic acid : Veratrole, molar ratio 2:1) was 24 wt. %. For the same compound, the “Solubility wt. % in total (C)” value ([1]; solvent system Formic acid : 1,2-dimethoxy benzene, molar ratio 2:1) was 49 wt. %, the “Solubility wt. % in total (C)” value ([1]; solvent system Thymol : (L)-menthol, molar ratio 1:1) was 28 wt. % and the “Solubility wt. % in total (C)” value [1, 9] was 60 wt. %. The “Solubility wt. % in total (C)” value ([1]; solvent system formic acid : Methyl salicylate, molar ratio 1:2) was 27 wt. %, the “Solubility wt. % in total (C)” value [1, 10] was 40 wt. % and the “Solubility of Azoxystrobin wt. % in total (C)” value ([2]; 2-Phenoxyethanol:Methyl Salicylate:Water (tap), molar ratio 1:1:0.5) was 24 wt. %. The “Solubility of Azoxystrobin wt. % in total (C)” value ([2]; 2-Phenoxyethanol:Methyl salicylate:D,L-Lactic acid, molar ratio 1:1:2) was 29 wt. %, the “Solubility of Azoxystrobin wt. % in total (C)” value ([2]; 2-Phenoxyethanol:Veratrole:D,L-Lactic acid, molar ratio 1:1:2) was 21 wt. % and the “Solubility of Azoxystrobin wt. % in total (C)” value ([2]; 2-Phenoxyethanol:Veratrole:Water (tap), molar ratio 1:2:0.5) was 25 wt. %. The “Solubility of Azoxystrobin wt. % in total (C)” value ([2]; 2-Phenylethanol:Methyl Salicylate:Water (tap), molar ratio 1:1:0.5) was 25 wt. % and the “Solubility of Azoxystrobin wt. % in total (C)” value ([2]; 2-Phenylethanol:phenyl acetic acid:Water (tap), molar ratio 2:1:0.5) was 25 wt. %.

From patent US20230301298A1, “Biocide Compositions” (BASF SE, priority 2020, published 2023)
